Laboratory results as given in patent US10000474B2, “Histone deacetylase inhibitors and uses thereof” (MUSC FOUNDATION FOR RESEARCH DEVELOPMENT, priority 2014, dated 2018).
Structures can show the parent of a compound that is named as a salt.

Legend:
Assay type in all cases: biochemical
Conditions in all cases: test concentration not given; average of triplicate
[1] = molecular target: T1, Recombinant human HDAC3/NcoR2 (Homo sapiens, UniProt O15379); experiment: HDAC inhibitory assay, HDAC3 (Boc-Lys(Ac)-AMC substrate)
T1 construct: purchased BPS Biosciences
T1 sequence (O15379 whole entry): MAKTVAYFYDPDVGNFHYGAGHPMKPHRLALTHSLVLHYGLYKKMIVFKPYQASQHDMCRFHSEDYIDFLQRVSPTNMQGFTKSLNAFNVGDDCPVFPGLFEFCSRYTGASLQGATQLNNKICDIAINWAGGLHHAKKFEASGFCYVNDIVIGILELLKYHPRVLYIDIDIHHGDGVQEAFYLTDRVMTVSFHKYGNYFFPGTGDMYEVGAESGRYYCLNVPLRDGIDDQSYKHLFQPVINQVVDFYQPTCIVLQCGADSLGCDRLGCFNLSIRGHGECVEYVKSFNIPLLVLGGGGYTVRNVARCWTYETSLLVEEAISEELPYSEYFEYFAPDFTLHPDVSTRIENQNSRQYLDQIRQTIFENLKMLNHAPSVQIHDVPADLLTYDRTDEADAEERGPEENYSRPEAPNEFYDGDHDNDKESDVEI
T1 sequence (Q9Y618 395-489 partner limits assumed): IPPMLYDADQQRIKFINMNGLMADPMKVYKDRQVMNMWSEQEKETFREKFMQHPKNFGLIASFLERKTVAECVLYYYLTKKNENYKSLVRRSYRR
Protocol: (§1) The compounds of Examples 1-12 and 14-16 were evaluated for their ability to act as inhibitors of human HDAC. The compound of Example 13 was not tested. Recombinant human HDAC1, HDAC2, HDAC3/NcoR2, HDAC5, HDAC6, HDAC8, HDAC9, HDAC10 and HDAC11 were purchased from BPS Biosciences. Recombinant human HDAC4 and HDAC7 were purchased from Millipore. The substrate Boc-Lys(Ac)-AMC and Boc-Lys(Tfa)-AMC were purchased from Bachem. The substrate Ac-RHK(Ac)K(Ac)-AMC was purchased from Enzo Life Sciences. Due to the different specific activities of each isoform, different amount of enzyme was used in each isoform screening assay. In these assays, trichostatin A (TSA), suberanilohydroxamic acid and diphenylacetohydroxamic acid (DPAHA) were employed as positive controls. All determinations were carried out in triplicate, and reported values were the average of these determinations, which in no case varied by more than 5%.
(§2) Then 25 μl of the Boc-Lys(Ac)-AMC substrate (50 μM final concentration) was added and incubated at 37° C. for 30-60 min, and followed by adding 50 μl of developer (1 mg/ml trypsin and 1 μM TSA). The last step was reading the samples in a SpectraMax M5 plate reader (Molecular Devices) at an excitation wavelength of 360 nm and an emission wavelength of 460 nm.

Recombinant human HDAC4 = molecular target: T2, Recombinant human HDAC4 (Homo sapiens, UniProt P56524); experiment: HDAC inhibitory assay, HDAC4 (Boc-Lys(Tfa)-AMC substrate)
T2 construct: purchased Millipore
T2 sequence (P56524 whole entry): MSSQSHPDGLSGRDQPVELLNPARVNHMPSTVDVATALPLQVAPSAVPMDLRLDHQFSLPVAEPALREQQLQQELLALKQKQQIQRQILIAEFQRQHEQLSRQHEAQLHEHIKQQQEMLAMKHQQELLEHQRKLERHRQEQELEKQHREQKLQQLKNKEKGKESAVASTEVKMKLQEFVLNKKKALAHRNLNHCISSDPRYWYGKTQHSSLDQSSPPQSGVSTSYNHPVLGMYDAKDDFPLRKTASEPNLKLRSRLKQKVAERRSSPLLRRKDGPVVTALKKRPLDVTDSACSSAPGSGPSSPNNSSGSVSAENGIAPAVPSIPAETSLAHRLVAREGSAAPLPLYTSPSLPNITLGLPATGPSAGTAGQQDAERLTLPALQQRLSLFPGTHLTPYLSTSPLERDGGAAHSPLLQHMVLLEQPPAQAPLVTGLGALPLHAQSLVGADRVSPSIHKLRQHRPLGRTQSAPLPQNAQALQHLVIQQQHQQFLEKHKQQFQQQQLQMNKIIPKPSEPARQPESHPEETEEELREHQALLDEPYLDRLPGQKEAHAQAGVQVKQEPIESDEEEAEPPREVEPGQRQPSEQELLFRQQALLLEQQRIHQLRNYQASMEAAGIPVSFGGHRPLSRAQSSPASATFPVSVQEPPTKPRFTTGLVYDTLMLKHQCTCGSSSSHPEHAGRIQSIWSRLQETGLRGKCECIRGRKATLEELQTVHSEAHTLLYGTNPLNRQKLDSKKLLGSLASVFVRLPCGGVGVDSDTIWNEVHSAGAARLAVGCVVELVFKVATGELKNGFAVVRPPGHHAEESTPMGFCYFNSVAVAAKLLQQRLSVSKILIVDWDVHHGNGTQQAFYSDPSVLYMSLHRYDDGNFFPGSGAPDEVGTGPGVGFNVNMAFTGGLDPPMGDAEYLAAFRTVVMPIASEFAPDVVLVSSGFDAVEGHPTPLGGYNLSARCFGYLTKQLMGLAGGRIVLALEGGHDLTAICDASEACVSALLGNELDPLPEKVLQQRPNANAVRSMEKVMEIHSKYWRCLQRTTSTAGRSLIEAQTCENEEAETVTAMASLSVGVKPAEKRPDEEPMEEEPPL
Protocol: as §1
(§3) For evaluating the inhibition of class IIa HDACs (HDAC4, HDAC5, HDAC7 and HDAC9) and class IV HDAC (HDAC11), 10 μl of test samples were first incubated with 1 ng HDAC4 (specific activity=15400 pmol/min/μg), 5 ng HDAC5 (specific activity=2521 pmol/min/μg), 1 ng HDAC7 (specific activity=26340 pmol/min/μg), 5 ng HDAC9 (specific activity=3000 pmol/min/μg), and 500 ng HDAC11 (specific activity=1.8 pmol/min/μg) respectively. Then 25 μl of the Boc-Lys(Tfa)-AMC substrate (50 μM final concentration) was added and incubated at 37° C. for 30-60 min, and followed by adding 50 μl of developer. The last step was to read the samples in a SpectraMax M5 plate reader (Molecular Devices) at an excitation wavelength of 360 nm and an emission wavelength of 460 nm.

Recombinant human HDAC1 = molecular target: T3, Recombinant human HDAC1 (Homo sapiens, UniProt Q13547); experiment: HDAC inhibitory assay, HDAC1 (Boc-Lys(Ac)-AMC substrate)
T3 construct: purchased BPS Biosciences
T3 sequence (Q13547 whole entry): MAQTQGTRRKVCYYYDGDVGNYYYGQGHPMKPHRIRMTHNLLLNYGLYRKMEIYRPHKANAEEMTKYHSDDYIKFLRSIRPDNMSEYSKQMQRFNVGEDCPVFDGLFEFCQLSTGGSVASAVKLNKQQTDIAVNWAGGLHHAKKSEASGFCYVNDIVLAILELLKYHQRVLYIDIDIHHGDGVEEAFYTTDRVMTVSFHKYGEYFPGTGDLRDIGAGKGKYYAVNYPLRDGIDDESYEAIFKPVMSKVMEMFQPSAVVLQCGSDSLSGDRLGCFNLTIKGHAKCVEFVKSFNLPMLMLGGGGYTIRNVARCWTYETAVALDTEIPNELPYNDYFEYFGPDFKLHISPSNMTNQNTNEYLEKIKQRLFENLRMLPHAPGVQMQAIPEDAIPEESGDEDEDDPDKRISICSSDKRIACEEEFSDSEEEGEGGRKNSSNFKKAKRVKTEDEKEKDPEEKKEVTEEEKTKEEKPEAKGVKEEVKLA
Protocol: as §1, §2

Recombinant human HDAC2 = molecular target: T4, Recombinant human HDAC2 (Homo sapiens, UniProt Q92769); experiment: HDAC inhibitory assay, HDAC2 (Boc-Lys(Ac)-AMC substrate)
T4 construct: purchased BPS Biosciences
T4 sequence (Q92769 whole entry): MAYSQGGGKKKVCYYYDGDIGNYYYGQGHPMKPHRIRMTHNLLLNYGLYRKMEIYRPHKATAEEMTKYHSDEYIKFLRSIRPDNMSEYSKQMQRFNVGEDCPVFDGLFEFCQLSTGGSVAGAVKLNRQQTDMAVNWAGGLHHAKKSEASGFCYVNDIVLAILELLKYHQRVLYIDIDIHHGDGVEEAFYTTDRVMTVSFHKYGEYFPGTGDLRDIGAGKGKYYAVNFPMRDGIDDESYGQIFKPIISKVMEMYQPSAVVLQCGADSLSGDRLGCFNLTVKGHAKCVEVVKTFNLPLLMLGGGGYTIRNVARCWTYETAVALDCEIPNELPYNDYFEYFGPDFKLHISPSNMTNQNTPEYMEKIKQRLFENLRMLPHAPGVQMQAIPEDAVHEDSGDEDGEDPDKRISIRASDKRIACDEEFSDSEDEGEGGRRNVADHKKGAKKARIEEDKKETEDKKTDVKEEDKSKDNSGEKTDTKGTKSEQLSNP
Protocol: as §1, §2

Recombinant human HDAC7 = molecular target: T5, Recombinant human HDAC7 (Homo sapiens, UniProt Q8WUI4); experiment: HDAC inhibitory assay, HDAC7 (Boc-Lys(Tfa)-AMC substrate)
T5 construct: purchased Millipore
T5 sequence (Q8WUI4 1-952): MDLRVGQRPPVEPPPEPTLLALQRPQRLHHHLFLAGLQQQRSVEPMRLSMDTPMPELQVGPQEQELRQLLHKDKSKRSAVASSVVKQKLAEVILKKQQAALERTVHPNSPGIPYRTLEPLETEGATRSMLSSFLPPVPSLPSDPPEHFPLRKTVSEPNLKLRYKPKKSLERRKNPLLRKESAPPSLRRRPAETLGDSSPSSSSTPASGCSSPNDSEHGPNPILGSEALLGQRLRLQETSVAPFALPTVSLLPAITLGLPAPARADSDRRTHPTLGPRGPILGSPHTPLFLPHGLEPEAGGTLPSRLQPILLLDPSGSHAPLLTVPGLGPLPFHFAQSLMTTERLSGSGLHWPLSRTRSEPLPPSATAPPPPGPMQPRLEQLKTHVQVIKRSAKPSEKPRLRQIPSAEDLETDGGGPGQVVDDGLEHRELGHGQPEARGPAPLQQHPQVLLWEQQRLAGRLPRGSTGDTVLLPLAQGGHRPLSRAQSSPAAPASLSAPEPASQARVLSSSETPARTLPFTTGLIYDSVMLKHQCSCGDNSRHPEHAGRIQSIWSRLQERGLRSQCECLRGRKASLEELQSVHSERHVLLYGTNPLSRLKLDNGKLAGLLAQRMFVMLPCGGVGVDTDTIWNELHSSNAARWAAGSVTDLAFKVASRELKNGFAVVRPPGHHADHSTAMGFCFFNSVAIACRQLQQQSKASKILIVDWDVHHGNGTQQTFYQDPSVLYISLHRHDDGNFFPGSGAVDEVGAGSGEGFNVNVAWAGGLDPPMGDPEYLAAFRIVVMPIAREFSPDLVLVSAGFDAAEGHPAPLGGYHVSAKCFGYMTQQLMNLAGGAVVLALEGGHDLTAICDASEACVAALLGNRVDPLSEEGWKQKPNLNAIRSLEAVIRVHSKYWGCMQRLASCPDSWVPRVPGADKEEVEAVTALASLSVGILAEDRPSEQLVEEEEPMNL
Protocol: as §1, §3

Recombinant human HDAC11 = molecular target: T6, Recombinant human HDAC11 (Homo sapiens, UniProt Q96DB2); experiment: HDAC inhibitory assay, HDAC11 (Boc-Lys(Tfa)-AMC substrate)
T6 construct: purchased BPS Biosciences
T6 sequence (Q96DB2 1-347): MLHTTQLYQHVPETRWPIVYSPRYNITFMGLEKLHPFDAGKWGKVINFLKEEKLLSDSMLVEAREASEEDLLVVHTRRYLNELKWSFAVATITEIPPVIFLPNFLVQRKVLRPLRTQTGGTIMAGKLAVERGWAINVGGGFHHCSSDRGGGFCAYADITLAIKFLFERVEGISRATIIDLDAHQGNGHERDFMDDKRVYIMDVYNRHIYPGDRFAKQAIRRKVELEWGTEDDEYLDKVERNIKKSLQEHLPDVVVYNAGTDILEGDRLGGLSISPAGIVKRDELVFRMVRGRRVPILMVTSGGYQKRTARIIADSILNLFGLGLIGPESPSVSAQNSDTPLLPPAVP
Protocol: as §1, §3

SMILES | HDAC 3 inhibitory activity [1] [%] | HDAC 4 inhibitory activity (Recombinant human HDAC4) [%] | HDAC 1 inhibitory activity (Recombinant human HDAC1) [%] | HDAC 2 inhibitory activity (Recombinant human HDAC2) [%] | HDAC 7 inhibitory activity (Recombinant human HDAC7) [%] | HDAC 11 inhibitory activity (Recombinant human HDAC11) [%]
O=C(Nc1ccccc1)c1coc(-c2ccccc2O)n1 [Example 1, 2-(2-Hydroxyphenyl)-N-phenyloxazole-4-carboxamide] | 22.5 | 17.1 | 62.5 | 29.5 | 1.3 | 21.8
O=C(NC(c1ccccc1)c1ccccc1)c1coc(-c2ccccc2O)n1 [Example 2, N-Benzhydryl-2-(2-hydroxyphenyl)oxazole-4-carboxamide] | 37.8 | 20.7 | 68.0 | 54.1 | 9.2 | 23.1
O=C(NCC(c1ccccc1)c1ccccc1)c1coc(-c2ccccc2O)n1 [Example 3, N-(2,2-Diphenylethyl)-2-(2-hydroxyphenyl)oxazole-4-carboxamide] | 23.7 | 8.5 | 43.9 | 34.8 | 4.1 | 39.5
O=C(NCCC(c1ccccc1)c1ccccc1)c1coc(-c2ccccc2O)n1 [Example 4, N-(3,3-Diphenylpropyl)-2-(2-hydroxyphenyl)oxazole-4-carboxamide] | 37.5 | 25.8 | 35.9 | 28.7 | 0.7 | 45.2
O=C(Nc1ccc(-c2ccccc2)cc1)c1coc(-c2ccccc2O)n1 [Example 5, N-([1,1′-Biphenyl]-4-yl)-2-(2-hydroxyphenyl)oxazole-4-carboxamide] | 30.2 | 25.5 | 62.2 | 31.9 | 19.4 | 28.4
O=C(NCc1ccc(-c2ccccc2)cc1)c1coc(-c2ccccc2O)n1 [Example 6, N-([1,1′-Biphenyl]-4-ylmethyl)-2-(2-hydroxyphenyl)oxazole-4-carboxamide] | 40.1 | 24.4 | 61.4 | 52.2 | 1.4 | 47.8
O=C(NCc1cccc2ccccc12)c1coc(-c2ccccc2O)n1 [Example 7, 2-(2-Hydroxyphenyl)-N-(naphthalen-1-ylmethyl)oxazole-4-carboxamide] | 32.3 | 21.3 | 47.8 | 45.2 | 3.8 | 49.9
O=C(NCCc1c[nH]c2ccccc12)c1coc(-c2ccccc2O)n1 [Example 8, N-(2-(1H-Indol-3-yl)ethyl)-2-(2-hydroxyphenyl)oxazole-4-carboxamide] | 18.9 | 7.5 | 41.7 | 36.0 | 3.8 | 26.0
O=C(NCCCCN1C(=O)c2ccccc2C1=O)c1coc(-c2ccccc2O)n1 [Example 9, N-(4-(1,3-Dioxoisoindolin-2-yl)butyl)-2-(2-hydroxyphenyl)oxazole-4-carboxamide] | 11.0 | 17.5 | 35.2 | 25.4 | 1.1 | 33.8
O=C(NCCCCNC(=O)C(c1ccccc1)c1ccccc1)c1coc(-c2ccccc2O)n1 [Example 10, N-(4-(2,2-Diphenylacetamido)butyl)-2-(2-hydroxyphenyl)oxazole-4-carboxamide] | 4.0 | 4.8 | 27.2 | 0 | 2.2 | 30.1
O=C(NCCCCNC(=S)NCCC(c1ccccc1)c1ccccc1)c1coc(-c2ccccc2O)n1 [Example 11, N-(4-(3-(3,3-Diphenylpropyl)thioureido)butyl)-2-(2-hydroxyphenyl)oxazole-4-carboxamide] | 3.7 | 55.8 | 43.3 | 1.3 | 21.9 | 69.9
O=C(NCCCCNCCC(c1ccccc1)c1ccccc1)c1coc(-c2ccccc2O)n1 [Example 12, N-(4-((3,3-Diphenylpropyl)amino)butyl)-2-(2-hydroxyphenyl)oxazole-4-carboxamide hydrochloride] | 18.1 | 6.5 | 32.2 | 19.7 | 0 | 39.1
O=C(O)c1ccc(CNC(=O)c2coc(-c3ccccc3O)n2)cc1 [Example 14, 4-((2-(2-Hydroxyphenyl)oxazole-4-carboxamido)methyl)benzoic acid] | 39.7 | 24.2 | 70.1 | 56.5 | 9.3 | 49.2
O=C(Nc1ccccc1)c1ccc(CNC(=O)c2coc(-c3ccccc3O)n2)cc1 [Example 15, 2-(2-Hydroxyphenyl)-N-(4-(phenylcarbamoyl)benzyl)oxazole-4-carboxamide] | 15.8 | 18.3 | 47 | 41.3 | 9.9 | 20.1
